{
  "source": "patent US20070093520A1",
  "about": "“Method of treatment of diarrhea-predominant irritable bowel syndrome in a subject” (priority 2005, published 2007)",
  "tested_on": "diarrhea-predominant IBS subjects",
  "assay": "3007 Study: IBS-QOL Survey",
  "format": "in vivo, human",
  "from_the_text": "Subjects were asked to complete the IBS-QOL Survey at Visits 1, 3, and 6 in order to assess possible changes of their QOL.\nSubjects were asked to complete a IBS-QOL Survey at Day 1 (Visit 5 of the core protocol), Month 6 and Month 12 (end of study or early termination) in order to assess possible changes of their QOL. The IBS-QoL survey, a 34 item IBS-specific QoL questionnaire consisting of 8 subscales (i.e., interference with activity; body image; health worry; food avoidance; social reaction; sexual; relationship; and dysphoria) was completed by patients at baseline and at later specified time points (e.g., at week 12 and at week 16 in Study 5050).\nFor IBS-QOL, Baseline for subjects randomized to the cilansetron treatment group was defined as […] of core Study 3006. For subjects randomized to the placebo group of core Study 3006, Visit 5 of the core Study 3006 was assigned as the Baseline.\nMean changes from Baseline for the IBS-QOL total score and subscale domains were summarized via descriptive statistics at […] and Visit 6 (Month 12) of Study 3007 for subjects randomized to the placebo group in core Study 3006 (or for subjects randomized to the cilansetron treatment group in the core Study 3006, at Visit 5 (Month 3), at Visit 3 (Month 6) and Visit 6 (Month 15) of Study 3007).\nFor Study 3007, “baseline” was defined as the last post-Baseline visit of Study 3006 (normally Visit 5) for subjects randomized to the placebo group and as Visit 1 of core Study 3006 for subjects randomized to the cilansetron treatment group.\nThe overall IBS-QOL score and the separate IBS-QOL domain scores (i.e. dysphoria, interference with activity, body image, health worry, food avoidance, social reaction, sexual, and relationship) were summarized by treatment group using descriptive statistics. The calculation of each domain score and the overall score is detailed in the user's manual. For each of the domain scores, as well as for the overall score, the change from Baseline to Endpoint was summarized descriptively. Based on the instruction from the author of the IBS-QOL questionnaire, the missing data of the IBS-QOL questionnaire were handled as follows: • If less than or equal to 20% of the items within a subscore (or total score) were missing for a subject, the subscore (or total score) was the summation of the non-missing scores for that subject; • If more than 20% of the items within a subscore (or total score) were missing, the subscore (or total score) was missing for that subject. Determination of Sample Size",
  "data": [
    {"smiles": "Cc1nccn1C[C@H]1CCc2c(c3cccc4c3n2CCC4)C1=O", "note": "[cilansetron, (R)-(−)-4,5,6,8,9,10-hexahydro-10-[(2-methyl-1H-imidazol-1-yl)methyl]-11H-pyrido-[3,2,1-jk]-carbazol-11-one]", "values": [
      {"measurement": "QOL after the start of cilansetron treatment", "setting": "Study 3007, P/C", "result": "An improvement was observed"},
      {"measurement": "improvement of mean IBS-QOL total score from Baseline", "setting": "Study 3007, at Endpoint, C/C", "result": 20.1},
      {"measurement": "mean IBS-QOL total score", "setting": "Study 3007, at Endpoint, C/C", "result": 70.7},
      {"measurement": "improvement of mean IBS-QOL total score from Baseline", "setting": "Study 3007, at Endpoint, P/C", "result": 8.9},
      {"measurement": "mean IBS-QOL total score", "setting": "Study 3007, at Endpoint, P/C", "result": 70.9},
      {"measurement": "mean IBS-QOL total score", "setting": "Study 3007, at Endpoint, overall", "result": 70.8},
      {"measurement": "mean IBS-QOL total score", "setting": "at the start of Study 3007 (after 12 weeks of Study 3006), C/C", "result": 69.5},
      {"measurement": "beneficial effect on the QOL observed during Study 3006", "setting": "during Study 3007, C/C", "result": "maintained"}
    ]}
  ]
}
